Among the data in US20240376094A2, “SELECTIVE BCL-XL PROTAC COMPOUNDS AND METHODS OF USE” (Les Laboratoires Servier, priority 2021, published 2024) are IC50, Emax and remaining activity values, retold here.

The structures appear in SMILES notation.

Holding throughout (type): cell-based
For one assay, the system named is COR-L105. Briefly: CellTiter-Glo proliferation assay, COR-L105. Particulars: Homo sapiens, COR-L105, 120 h, COR-L105, 5 days; for Emax: read-out: COR-L105 Span (max). How it is done: (§1) The BCL-xL degrader compounds were tested against two endogenous cancer cell lines: • COR-L105: ECACC No. 92031918 cultured in RPMI-1640+10% FBS • NCI-H1650: (ATCC No. CRL-5883 cultured in RPMI-1640+10% FBS
(§2) The ability of the BCL-xL degrader low molecular weight compounds to inhibit cell proliferation and survival was assessed using the Promega CellTiter-Glo® proliferation assay.
(§3) Cell lines were cultured in media that is optimal for their growth at 5% CO2, 37° C. in a tissue culture incubator. Prior to seeding for the proliferation assay, the cells were split at least 2 days before the assay to ensure optimal growth density. On the day of seeding, adherent cells were lifted off tissue culture flasks using 0.25% trypsin. Cell viability and cell density were determined using a cell counter (Vi-Cell XR Cell Viability Analyzer, Beckman Coulter). Cells with higher than 85% viability were seeded for the assay.
(§4) The COR-105 cell line was seeded in white, clear bottom 384-well TC treated plates (Corning cat. #3765). Cells were seeded at a density of 1,000 cells per well in 45 μL of standard growth media. Plates were incubated at 5% CO2, 37° C. overnight in a tissue culture incubator. The NCI-H1650 cell line was seeded in black, clear round bottom 384-well ultra-low attachment spheroid microplates (Corning cat. #3830). Cells were seeded at a density of 3,000 cells per well in 45 uL of standard growth media. Plates were spun in a centrifuge for 5 minutes and 1,000 RPM. Plates were incubated at 5% CO2, 37° C. for 72 hours in a tissue culture incubator.
(§5) On the day of dosing, BCL-xL degrader low molecular weight compounds were prepared at 1 OX in standard growth media. The prepared drug treatments were then added to the cells resulting in final concentrations of 0.508 nM-10 μM and a final volume of 50 μL per well. Each drug concentration was tested in quadruplets. Plates were incubated at 5% CO2, 37° C. for 5 days in a tissue culture incubator.
(§6) For COR-L105 plates, cell viability was assessed through the addition of 25 μL of CellTiter Glo® (Promega, cat #G7573), a reagent which lyses cells and measures total adenosine triphosphate (ATP) content. Plates were incubated at room temperature for 10 minutes to stabilize luminescent signals prior to reading with a luminescence reader (EnVision Multilabel Plate Reader, PerkinElmer). For NCI-H1650 plates, cell viability was assessed through the addition of 40 μL of CellTiter Glo® 3D Cell Viability Assay substrate (Promega, cat #G9681), a reagent which lyses cells and measures total adenosine triphosphate (ATP) content. Wells were mixed thoroughly and plates were incubated at room temperature for 30 minutes to stabilize luminescent signals prior to reading using a luminescence reader (EnVision Multilabel Plate Reader, PerkinElmer).
(§7) To evaluate the effect of the drug treatments, luminescent counts from wells containing untreated cells (100% viability) were used to normalize treated samples. A variable slope model was applied to fit a nonlinear regression curve to the data in GraphPad PRISM version 7.02 software. IC50 and Amax values were extrapolated from the resultant curves. The concentrations of treatment required to inhibit 50% of cell growth or survival (IC50) were calculated with representative IC50 values of the cell lines tested summarized in Table 11.
(In general: Cellular ATP, detected with luciferase, serves as a proxy for viable cell number.)

Another assay concerns the target T1, endogenous BCL-xL (Homo sapiens, UniProt Q07817).
T1 construct: endogenous in cells; host or cells: COR-L105 (ECACC No. 92031918); NCI-H1650 (ATCC No. CRL-5883)
As to the kind of experiment: Degradation of endogenous BCL-xL in COR-L105 (ProteinSimple Jess). The following applies: COR-L105, 24 h, COR-L105, dose 300 nM, read-out: % BCL-xL vs. Untreated, COR-L105. The method, then: The BCL-xL degrader low molecular weight compounds were tested against two endogenous cancer cell lines: • COR-L105: ECACC No. 92031918 cultured in RPMI-1640+10% FBS • NCI-H1650: (ATCC No. CRL-5883 cultured in RPMI-1640+10% FBS
The ability of the BCL-xL degrader low molecular weight compounds to degrade endogenous BCL-xL was assessed using the ProteinSimple 2-40 kDa Jess Separation Module.
Cell lines were cultured in media that is optimal for their growth at 5% CO2, 37° C. in a tissue culture incubator. Prior to seeding for the degradation assay, the cells were split at least 2 days before the assay to ensure optimal growth density. On the day of seeding, adherent cells were lifted off tissue culture flasks using 0.25% trypsin. Cell viability and cell density were determined using a cell counter (Vi-Cell XR Cell Viability Analyzer, Beckman Coulter). Cells with higher than 85% viability were seeded for the assay.
The COR-L105 and the NCI-H1650 cell line were seeded in 6-well clear TC-treated multiple well plates (Costar® cat. #3516). Cells were seeded at a density of 2,000,000 cells per well in 2.5 mL of standard growth media. Plates were incubated at 5% CO2, 37° C. overnight in a tissue culture incubator. On the day of dosing, BCL-xL degrader low molecular weight compounds and a BCL-xL inhibitor control were prepared at 6× in standard growth media. The prepared drug treatments were then added to the cells resulting in a final concentration of 100-300 nM and a final volume of 3.0 mL per well. A control well of untreated cells was also included in the study. Each drug concentration was tested in singlet. Plates were incubated at 5% CO2, 37° C. for 24 hours in a tissue culture incubator.
After 24 hours, the adherent cells were lifted off tissue culture plates using 0.25% trypsin. Standard growth media was added to quench the trypsin and centrifuged for 5 minutes at 1500 rpm. Cell pellets were washed once with cold PBS and centrifuged for 5 minutes at 1500 rpm. Cells were then washed with 1 mL cold PBS and transferred to a 1.5 mL eppendorf tube. Cells were centrifuged for 10 minutes at ≥10,000 g at 4° C. in a benchtop mini-centrifuge. The entire supernatant was discarded and cells were resuspended thoroughly in 50 μL of RIPA lysis buffer, generated by the manufacturer's protocol (ProteinSimple, Cat. #CBS401: Lysis Kit—RIPA Buffer for Charge Assays). Lysates were incubated on ice for 30 minutes. Following incubation, lysates were spun in a benchtop mini-centrifuge for 15 minutes at full speed at 4° C. Supernatant was carefully transferred to a new eppendorf tube for downstream analysis.
Protein was quantified using a Pierce™ BCA Protein Assay Kit (ThermoFisher, cat #23225) following the manufacturer's instructions. A standard curve was prepared by adding 25 μL of each concentration of reference samples from a Pierce™ Bovine Serum Albumin Standard Pre-Diluted Set (ThermoFisher, cat #23208). Each reference sample was run in duplicate. Testing samples were prepared by diluting cell lysates 1:5 in UltraPure™ DNase/RNase-Free Distilled Water and tested in duplicates of 25 μL each. The BCA working reagent was prepared by addition of 50 parts of BCA Reagent A with 1 part of BCA Reagent B. For each testing well, 200 μL of BCA working reagent was added. The plate was incubated at 37° C. for 30 minutes. A SpectraMax M Series Multi-Mode Microplate Reader was used to measure the absorbance at 562 nm. A standard curve generated by the Pierce™ Bovine Serum Albumin Standard Pre-Diluted Set was used to normalize and calculate the BCA concentration of cell lysates. Only values that fell within the range of the standard curve were accepted for quantification.
The ProteinSimple 2-40 kDa Jess Separation Module was used to detect BCL-xL degradation in treated versus untreated lysates following the manufacturer's instructions (25-Capillary Cartridge, 8 pack, 2-40 kDa, cat #SM W012). […]

The next assay deals with NCI-H1650. Briefly: CellTiter-Glo 3D proliferation assay, NCI-H1650 spheroids. The following applies: Homo sapiens, NCI-H1650, 120 h, 5 days; for Emax: read-out: NCI-H1650 Span (Amax). The method, then: as §1, §2, §3, §4, §5, §6, §7

T1 sequence (Q07817 whole entry): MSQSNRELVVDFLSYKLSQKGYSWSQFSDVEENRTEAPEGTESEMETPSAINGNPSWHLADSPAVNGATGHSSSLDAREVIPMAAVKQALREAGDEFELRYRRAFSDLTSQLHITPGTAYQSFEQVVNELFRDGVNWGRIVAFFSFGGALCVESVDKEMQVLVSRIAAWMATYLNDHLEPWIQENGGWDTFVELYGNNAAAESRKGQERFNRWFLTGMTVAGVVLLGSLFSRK

For the compound `Cc1ncsc1-c1ccc([C@H](C)NC(=O)[C@@H]2C[C@@H](O)CN2C(=O)[C@@H](NC(=O)CCCCCCCC(=O)N2CCN(CC#Cc3ccc(OCCCc4sc(N5CCCc6c5nnc(Nc5nc7ccccc7s5)c6C)nc4C(=O)O)c(F)c3)CC2)C(C)(C)C)cc1` [Example 38, 2-(3-(benzo[d]thiazol-2-ylamino)-4-methyl-6,7-dihydropyrido [2,3-c]pyridazin-8(5H)-yl)-5-(3-(2-fluoro-4-(3-(4-(9-(((S)-1-((2S,4R)-4-hydroxy-2-(((S)-1-(4-(4-methylthiazol-5-yl)phenyl)ethyl)carbamoyl)pyrrolidin-1-yl)-3,3-dimethyl-1-oxobutan-2-yl)amino)-9-oxononanoyl)piperazin-1-yl)prop-1-yn-1-yl)phenoxy)propyl)thiazole-4-carboxylic acid], the IC50 with COR-L105 amounted to 83.1 nM; in the assay on NCI-H1650 it was 8.15 nM. The Emax in the assay on COR-L105 turned out to be 87.4%; in the assay with NCI-H1650, 87.9%. The remaining activity at 0.3 µM at endogenous BCL-xL was 22.1%.

For `Cc1ncsc1-c1ccc([C@H](C)NC(=O)[C@@H]2C[C@@H](O)CN2C(=O)[C@@H](NC(=O)CCCCCC(=O)N2CCN(CC#Cc3ccc(OCCCc4sc(N5CCCc6c5nnc(Nc5nc7ccccc7s5)c6C)nc4C(=O)O)c(F)c3)CC2)C(C)(C)C)cc1` [Example 34, 2-(3-(benzo[d]thiazol-2-ylamino)-4-methyl-6,7-dihydropyrido [2,3-c]pyridazin-8(5H)-yl)-5-(3-(2-fluoro-4-(3-(4-(7-(((S)-1-((2S,4R)-4-hydroxy-2-(((S)-1-(4-(4-methylthiazol-5-yl)phenyl)ethyl)carbamoyl)pyrrolidin-1-yl)-3,3-dimethyl-1-oxobutan-2-yl)amino)-7-oxoheptanoyl)piperazin-1-yl)prop-1-yn-1-yl)phenoxy)propyl)thiazole-4-carboxylic acid], in the assay with COR-L105, half-maximal inhibition (IC50) was put at 74.2 nM and the Emax is 82.7%. Besides, the remaining activity at 0.3 µM at endogenous BCL-xL turned out to be 74.5%. For the same compound, in the assay on NCI-H1650, the IC50 amounted to 7.67 nM and the Emax worked out at 55.4%.

Consider `Cc1ncsc1-c1ccc(CNC(=O)[C@@H]2C[C@@H](O)CN2C(=O)[C@@H](NC(=O)C2(F)CC2)C(C)(C)C)c(OCC(=O)NCCCCCN2CCN(CC#Cc3ccc(OCCCc4sc(N5CCCc6c5nnc(Nc5nc7ccccc7s5)c6C)nc4C(=O)O)c(F)c3)CC2)c1` [Example 53, 2-(3-(benzo[d]thiazol-2-ylamino)-4-methyl-6,7-dihydropyrido [2,3-c]pyridazin-8(5H)-yl)-5-(3-(2-fluoro-4-(3-(4-(5-(2-(2-(((2S,4R)-1-((S)-2-(1-fluorocyclopropane-1-carboxamido)-3,3-dimethylbutanoyl)-4-hydroxypyrrolidine-2-carboxamido)methyl)-5-(4-methylthiazol-5-yl)phenoxy)acetamido)pentyl)piperazin-1-yl)prop-1-yn-1-yl)phenoxy)propyl)thiazole-4-carboxylic acid], for which, in the assay with COR-L105, half-maximal inhibition (IC50) was put at 33.4 nM and the Emax was 97.9%. The remaining activity at 0.3 µM at endogenous BCL-xL was 48.3%. Besides, in the assay on NCI-H1650, the midpoint of inhibition, the IC50, lay at 4.46 nM and the Emax was 79.3%.

In the case of `Cc1ncsc1-c1ccc([C@H](C)NC(=O)[C@@H]2C[C@@H](O)CN2C(=O)[C@@H](NC(=O)CSCC(=O)N2CCN(CC#Cc3ccc(OCCCc4sc(N5CCCc6c5nnc(Nc5nc7ccccc7s5)c6C)nc4C(=O)O)c(F)c3)CC2)C(C)(C)C)cc1` [Example 37, 2-(3-(benzo[d]thiazol-2-ylamino)-4-methyl-6,7-dihydropyrido [2,3-c]pyridazin-8(5H)-yl)-5-(3-(2-fluoro-4-(3-(4-(2-((2-(((S)-1-((2S,4R)-4-hydroxy-2-(((S)-1-(4-(4-methylthiazol-5-yl)phenyl)ethyl)carbamoyl)pyrrolidin-1-yl)-3,3-dimethyl-1-oxobutan-2-yl)amino)-2-oxoethyl)thio)acetyl)piperazin-1-yl)prop-1-yn-1-yl)phenoxy)propyl)thiazole-4-carboxylic acid], in the assay with COR-L105, the half-maximal inhibitory concentration (IC50) was 623 nM and the Emax came to 88.5%. In addition, at endogenous BCL-xL, the remaining activity at 0.3 µM is 82.4%. In the assay with NCI-H1650, inhibition was half-maximal at 39.7 nM (IC50) and the Emax is 107%.

Turning to `Cc1ncsc1-c1ccc(CNC(=O)[C@@H]2C[C@@H](O)CN2C(=O)[C@@H](NC(=O)C2(F)CC2)C(C)(C)C)c(OCC(=O)NCCCCC(=O)N2CCN(CC#Cc3ccc(OCCCc4sc(N5CCCc6c5nnc(Nc5nc7ccccc7s5)c6C)nc4C(=O)O)c(F)c3)CC2)c1` [Example 44, 2-(3-(benzo[d]thiazol-2-ylamino)-4-methyl-6,7-dihydropyrido [2,3-c]pyridazin-8(5H)-yl)-5-(3-(2-fluoro-4-(3-(4-(5-(2-(2-(((2S,4R)-1-((S)-2-(1-fluorocyclopropane-1-carboxamido)-3,3-dimethylbutanoyl)-4-hydroxypyrrolidine-2-carboxamido)methyl)-5-(4-methylthiazol-5-yl)phenoxy)acetamido)pentanoyl)piperazin-1-yl)prop-1-yn-1-yl)phenoxy)propyl)thiazole-4-carboxylic acid], the remaining activity at 0.3 µM at endogenous BCL-xL was found to be 58.3%.

One may read the IC50 as the midpoint of a concentration-inhibition curve.
